What was measured:
[1] = tested on: Aedes albopictus; test: Evaluation of the repellent and/or attractant effect in a tunnel olfactometer; assay type: in vivo; settings: for Repulsion index 5 mg deposition / Repulsion index 10 mg deposition / Repulsion index 30 mg deposition / RI (%) repulsion index / KI (%) kairomone index: negative = attractant; for Control (±SD), mean number of mosquitoes in the control zone / Treated/Product (±SD), mean number of mosquitoes in the treated zone / Treated (±SD), mean number of mosquitoes in the treated zone: 15 females; for repellent or attractant effect (in words): over the doses tested; for repellent effect compared with Picaridin and DEET (in words): equivalent/identical doses (10 and 30 mg/ml)
Excerpt: The tunnel olfactometer is a 1 m long glass parallelepiped with a 5×5 cm side. The tube is equipped with 3 openings: two on each side, one for feeding in the paper impregnated with the product to be tested, and the other for the paper containing a control. The opening in the middle is for feeding in mosquitoes. Both ends of the tube are closed by covers.
The olfactometer is divided into three compartments or zones: • a neutral zone in the middle; • a test or treated area which is on the side of depositing the product; and • a control area which is located on the side of depositing the control.
For each test, 15 Aedes albopictus females (aged 5 to 12 days) are fed into the neutral zone of the tunnel olfactometer. Mosquitoes are kept for 10 minutes for a time of adaptation. Papers impregnated and dried with a solution of product in ethanol and pure ethanol as a reference are fed in, then the barriers are opened to allow mosquitoes to circulate freely inside the tube. Three test repetitions were carried out for each product. A repetition lasts 20 minutes and the results observed were recorded every 5 minutes.
The values measured are the activity index and the repulsion index. The activity index (Al) describes the percentage of mosquitoes in the control zone (T) and in the treated zone (P) with respect to the total number of mosquitoes tested. Said value should be greater than 30% for the test to be considered significant.
The repulsion index (RI) represents the percentage of the difference in the number of mosquitoes in the control part and in the treated part divided by the sum of the two values. A negative value of the parameter (RI) indicates an attractant activity (kairomone index. KI) of the product tested.
[formula] • Al: Activity index • RI: Repulsion index • T: Number of mosquitoes in the control area • P: Number of mosquitoes in the treated area

[2] = tested on: Aedes albopictus; test: Evaluation of the combination 4-hydroxycoumarin / 7-nonyloxychromone (KI vs amount deposited, FIG. 1); assay type: in vivo
Excerpt: Said figure represents the IK (in %) as a function of the amount deposited (in mg).
It is possible to combine a chromone compound with other compounds of different structure.

Row | Compound | Repulsion index 5 mg deposition [1] [%] | Repulsion index 10 mg deposition [1] [%] | Repulsion index 30 mg deposition [1] [%] | AI (%) activity index ([1]; dose 5 mg/ml) [%] | Control (±SD), mean number of mosquitoes in the control zone ([1]; dose 5 mg/ml in treated zone) | Treated/Product (±SD), mean number of mosquitoes in the treated zone ([1]; dose 5 mg/ml) | AI (%) activity index ([1]; dose 10 mg/ml) [%] | Control (±SD), mean number of mosquitoes in the control zone ([1]; dose 10 mg/ml in treated zone) | Treated/Product (±SD), mean number of mosquitoes in the treated zone ([1]; dose 10 mg/ml) | AI (%) activity index ([1]; dose 30 mg/ml) [%] | Control (±SD), mean number of mosquitoes in the control zone ([1]; dose 30 mg/ml in treated zone) | Treated/Product (±SD), mean number of mosquitoes in the treated zone ([1]; dose 30 mg/ml) | repellent or attractant effect (in words) [1] | KI (%) kairomone index ([1]; dose 5 mg/ml) [%] | KI (%) kairomone index ([1]; dose 10 mg/ml) [%] | KI (%) kairomone index ([1]; dose 30 mg/ml) [%] | further results
1 | CCC(C)OC(=O)N1CCCCC1CCO (stereo not drawn) [Picaridin, reference compound] | 42.6 | 49.6 | 59.7 |  |  |  |  |  |  |  |  |  |  |  |  |  | 
2 | C=CC(O)CCCCC (stereo not drawn) [Octen-3-ol, octen-3-ol, reference compound] | −41.7 | −54.7 | −61.6 |  |  |  |  |  |  |  |  |  |  |  |  |  | 
3 | CC[C@H](C)Oc1ccc2c(=O)ccoc2c1 [S-(+)-sec-butoxychromone] |  |  |  | 91.7 | 4.8 ± 0.5 | 9.0 ± 0.2 | 87.2 | 4.2 ± 0.9 | 8.9 ± 1.1 | 83.3 | 9.3 ± 0.8 | 3.3 ± 0.2 | attractant at low doses and repellent at high doses |  |  |  | RI (%) repulsion index ([1]; dose 5 mg/ml): −31.2%; RI (%) repulsion index ([1]; dose 10 mg/ml): −35.8%; RI (%) repulsion index ([1]; dose 30 mg/ml): 47.9%; AI (%) activity index ([1]; dose 60 mg/ml): 89.4%; Control (±SD), mean number of mosquitoes in the control zone ([1]; dose 60 mg/ml in treated zone): 11.4 ± 0.8; Treated/Product (±SD), mean number of mosquitoes in the treated zone ([1]; dose 60 mg/ml): 2.0 ± 0.0; RI (%) repulsion index ([1]; dose 60 mg/ml): 70.5%
4 | CCC[C@H](C)Oc1ccc2c(=O)ccoc2c1 [S-(+)-sec-pentoxychromone] |  |  |  | 83.9 | 3.1 ± 1.2 | 9.5 ± 0.7 | 95 | 5.8 ± 0.2 | 8.4 ± 0.1 | 77.8 | 5.2 ± 0.3 | 6.5 ± 0.7 | attractant | −52.4 | −18.2 | −10.7 | AI (%) activity index ([1]; dose 1 mg/ml): 93.3%; Control (±SD), mean number of mosquitoes in the control zone ([1]; dose 1 mg/ml in treated zone): 3.8 ± 0.3; Treated (±SD), mean number of mosquitoes in the treated zone ([1]; dose 1 mg/ml): 10.3 ± 0.7; KI (%) kairomone index ([1]; dose 1 mg/ml): −46.3%
5 | CCC(C)Oc1ccc2c(=O)ccoc2c1 (racemic) [7-sec-butoxychromone] |  |  |  | 71.1 | 7.3 ± 0.4 | 3.3 ± 0.1 | 71.8 | 7.2 ± 0.9 | 3.6 ± 0.4 | 78 | 8.3 ± 0.5 | 3.4 ± 0.9 | repellent at any dose |  |  |  | RI (%) repulsion index ([1]; dose 5 mg/ml): 37.6%; RI (%) repulsion index ([1]; dose 10 mg/ml): 37.9%; RI (%) repulsion index ([1]; dose 30 mg/ml): 56.1%; AI (%) activity index ([1]; dose 60 mg/ml): 90.6%; Control (±SD), mean number of mosquitoes in the control zone ([1]; dose 60 mg/ml in treated zone): 11.8 ± 0.7; Treated/Product (±SD), mean number of mosquitoes in the treated zone ([1]; dose 60 mg/ml): 1.8 ± 0.2; RI (%) repulsion index ([1]; dose 60 mg/ml): 72.9%
6 | CCN(CC)C(=O)c1cccc(C)c1 [DEET, reference compound] | 55.5 | 60.4 | 59.1 |  |  |  |  |  |  |  |  |  |  |  |  |  | 
7 | CCCC(C)Oc1ccc2c(=O)ccoc2c1 (racemic) [7-sec-pentoxychromone] | −59.2 | −47.8 | −28.7 | 80.1 | 2.5 ± 0.3 | 9.5 ± 0.2 | 88.3 | 3.4 ± 0.4 | 9.8 ± 1.1 | 90 | 4.8 ± 0.4 | 8.7 ± 0.4 | attractant | −59.2 | −47.9 | −28.6 | AI (%) activity index ([1]; dose 1 mg/ml): 85%; Control (±SD), mean number of mosquitoes in the control zone ([1]; dose 1 mg/ml in treated zone): 3.5 ± 0.5; Treated (±SD), mean number of mosquitoes in the treated zone ([1]; dose 1 mg/ml): 9.3 ± 0.7; KI (%) kairomone index ([1]; dose 1 mg/ml): −45.6%
8 | R-(−)-sec-pentoxychromone |  |  |  | 86.7 | 2.2 ± 0.4 | 10.8 ± 0.6 | 81.1 | 3.6 ± 0.4 | 8.6 ± 0.1 | 90 | 6.6 ± 0.4 | 6.9 ± 0.3 | attractant | −66.6 | −47.1 | −2.8 | AI (%) activity index ([1]; dose 1 mg/ml): 92.2%; Control (±SD), mean number of mosquitoes in the control zone ([1]; dose 1 mg/ml in treated zone): 5.3 ± 0.3; Treated (±SD), mean number of mosquitoes in the treated zone ([1]; dose 1 mg/ml): 8.6 ± 0.2; KI (%) kairomone index ([1]; dose 1 mg/ml): −24.3%
9 | R-(−)-sec-butoxychromone | 51 | 65.6 | 79.5 | 84 | 9.5 ± 0.3 | 3.1 ± 0.1 | 88.9 | 11 ± 0.3 | 2.3 ± 0.7 | 92.2 | 12.4 ± 0.1 | 1.4 ± 0.1 | repellent at any dose |  |  |  | RI (%) repulsion index ([1]; dose 5 mg/ml): 51.3%; RI (%) repulsion index ([1]; dose 10 mg/ml): 65.6%; RI (%) repulsion index ([1]; dose 30 mg/ml): 79.5%; AI (%) activity index ([1]; dose 60 mg/ml): 92%; Control (±SD), mean number of mosquitoes in the control zone ([1]; dose 60 mg/ml in treated zone): 12.2 ± 0.1; Treated/Product (±SD), mean number of mosquitoes in the treated zone ([1]; dose 60 mg/ml): 1.6 ± 0.2; RI (%) repulsion index ([1]; dose 60 mg/ml): 76.6%; repellent effect compared with Picaridin and DEET (in words) ([1]; listed as (R) 7-sec-butoxychromone): as effective and more effective than Picaridin and DEET; repellent effect compared with Picaridin and DEET (in words) ([1]; listed as enantiomer R): as significant as DEET and picaridin
10 | CCCCCCCC(C)Oc1ccc2c(=O)ccoc2c1 (racemic) [7-sec-nonyloxychromone] | −65.8 | −63.7 | −27.1 | 83.9 | 2.2 ± 0.3 | 10.4 ± 0.1 | 91.7 | 2.5 ± 0.5 | 11.3 ± 0.0 | 88.3 | 4.8 ± 0.4 | 8.4 ± 0.2 | stays attractant | −65.8 | −63.6 | −27.1 | AI (%) activity index ([1]; dose 0.1 mg/ml): 91.1%; Control (±SD), mean number of mosquitoes in the control zone ([1]; dose 0.1 mg/ml in treated zone): 2.5 ± 0.2; Treated (±SD), mean number of mosquitoes in the treated zone ([1]; dose 0.1 mg/ml): 11.2 ± 0.6; KI (%) kairomone index ([1]; dose 0.1 mg/ml): −63.5%; AI (%) activity index ([1]; dose 2 mg/ml): 91.1%; Control (±SD), mean number of mosquitoes in the control zone ([1]; dose 2 mg/ml in treated zone): 1.4 ± 0.4; Treated (±SD), mean number of mosquitoes in the treated zone ([1]; dose 2 mg/ml): 12.3 ± 0.0; KI (%) kairomone index ([1]; dose 2 mg/ml): −79.8%; maximum value of KI ([1]; dose of 2 mg/ml, given as magnitude): ~80%; attractant activity (KI) ([1]; up to 10 mg/ml, given as magnitude): above 65%; change of attractant effect with dose (in words) ([2]; from the 10 mg dose onwards): significant decrease
11 | CCCCCCCCCCOc1ccc2c(=O)ccoc2c1 [7-n-decyloxychromone] |  |  |  |  |  |  | 85 | 3.9 ± 0.3 | 8.8 ± 0.9 |  |  |  |  |  | −37.8 ± 5.2 |  | attractant effect compared with a reference attractant (in words) ([1]; same doses): attractant effect equivalent to that of 7-sec-nonyloxychromone
12 | O=c1cc(O)c2ccccc2o1 [4-hydroxycoumarin] |  |  |  |  |  |  |  |  |  |  |  |  |  |  |  |  | increase in attraction ([2]; higher doses (10 and 30 mg) vs low doses): 10%; kairomone index KI ([2]; low dose (or quantity)): ~40%

— patent US20240292837A1, “CHROMONE DERIVATIVES AS ATTRACTANTS AND REPELLENTS OF BLOOD-SUCKING, BITING INVERTEBRATES” (CENTRE NATIONAL DE LA RECHERCHE SCIENTIFIQUE, priority 2021, published 2024)
